Measurements as given in patent US6828315B1, “1-Amino triazoloc4,3-a! quinazoline-5-ones and/or -5-thiones inhibiting phosphodiesterase IV” (Warner-Lambert LLC, priority 1999, dated 2004).

| melting point | SMILES |
| --- | --- |
| 155 °C | O=c1c2cc(Br)ccc2n2c(N3CCCC3)nnc2n1CC1CCCC1 [Compound 65, 7-Bromo-4-cyclopentylmethyl-1-pyrrolidin-1-yl-4H-[1,2,4]triazolo[4,3-a]quinazolin-5-one] |
| 135 °C | CCCCn1c(=O)c2cc(Br)ccc2n2c(N3CCCC3)nnc12 [Compound 66, 7-Bromo-4-butyl-1-pyrrolidin-1-yl-4H-[1,2,4]triazolo[4,3-a]quinazolin-5-one] |
| 202 °C | O=c1c2cc(Br)ccc2n2c(N3CCCC3)nnc2n1CC(F)(F)F [Compound 67, 7-Bromo-1-pyrrolidin-1-yl-4-(2,2,2-trifluoro-ethyl)-4H-[1,2,4]triazolo[4,3-a]quinazolin-5-one] |
| 240 °C | O=c1c2cc(Br)ccc2n2c(N3CCCC3)nnc2n1CCO [Compound 68, 7-Bromo-4-(2-hydroxy-ethyl)-1-pyrrolidin-1-yl-4H-[1,2,4]triazolo[4,3-a]quinazolin-5-one] |
| 204 °C | C#CCn1c(=O)c2cc(Br)ccc2n2c(N3CCCC3)nnc12 [Compound 70, 7-Bromo-4-prop-2-ynyl-1-pyrrolidin-1-yl-4H-[1,2,4]triazolo[4,3-a]quinazolin-5-one] |
| 171 °C | O=c1c2cc(Br)ccc2n2c(N3CCCC3)nnc2n1CCOc1ccccc1 [Compound 71, 7-Bromo-4-(2-phenoxy-ethyl)-1-pyrrolidin-1-yl-4H-[1,2,4]triazolo[4,3-a]quinazolin-5-one] |
| 122 °C | O=c1c2cc(Br)ccc2n2c(N3CCCC3)nnc2n1CCSc1ccccc1 [Compound 72, 7-Bromo-4-(2-phenylsulfenyl-ethyl)-1-pyrrolidin-1-yl-4H-[1,2,4]triazolo[4,3-a]quinazolin-5-one] |
| 184 °C | COC(=O)C(c1ccccc1)n1c(=O)c2cc(Br)ccc2n2c(N3CCCC3)nnc12 (stereo not shown) [Compound 73, (7-Bromo-5-oxo-1-pyrrolidin-1-yl-5H-[1,2,4]triazolo[4,3-a]quinazolin-4-yl)-phenyl-acetic acid methyl ester] |
| 200 °C | N#Cc1ccc(Cn2c(=O)c3cc(Br)ccc3n3c(N4CCCCC4)nnc23)cc1 [Compound 74, 4-(7-Bromo-5-oxo-1-piperidin-1-yl-5H-[1,2,4]triazolo[4,3-a]quinazolin-4-ylmethyl)-benzonitrile] |
| 177 °C | O=c1c2cc(Br)ccc2n2c(N3CCSCC3)nnc2n1CC=Cc1cccnc1 [Compound 77, 7-Bromo-4(3-pyridin-3-yl-allyl)-1-thiomorpholin-4-yl-4H-[1,2,4]triazolo[4,3-a]quinazolin-5-one] |
| 246 °C | CN(C)c1nnc2n(Cc3ccc(CC(=O)O)cc3)c(=O)c3cc(Br)ccc3n12 [Compound 82, [4-(7-Bromo-1-dimethylamino-5-oxo-5H-[1,2,4]triazolo[4,3-a]quinazolin-4-ylmethyl)-phenyl]-acetic acid] |
| 142 °C | CN(C)c1nnc2n(Cc3cccnc3)c(=O)c3cc(Br)ccc3n12 [Compound 84, 7-Bromo-1-dimethylamino-4-pyridin-3-ylmethyl-4H-[1,2,4]triazolo[4,3-a]quinazolin-5-one] |
| 167 °C | CN(C)c1nnc2n(CC=Cc3ccccc3)c(=O)c3cc(Br)ccc3n12 [Compound 86, 7-Bromo-1-dimethylamino-4-(3-phenyl-allyl)-4H-[1,2,4]triazolo[4,3-a]quinazolin-5-one] |
| 115 °C | CN(C)c1nnc2n(CC=Cc3ccncc3)c(=O)c3cc(Br)ccc3n12 [Compound 87, 7-Bromo-1-dimethylamino-4-(3-pyridin-4-yl-allyl)-4H-[1,2,4]triazolo[4,3-a]quinazolin-5-one] |
| 234 °C | C#CCn1c(=O)c2cc(Br)ccc2n2c(N(C)C)nnc12 [Compound 88, 7-Bromo-1-dimethylamino-4-prop-2-ynyl-4H-[1,2,4]triazolo[4,3-a]quinazolin-5-one] |
| 243 °C | COC(=O)C(c1ccccc1)n1c(=O)c2cc(Br)ccc2n2c(N(C)C)nnc12 (stereo not shown) [Compound 90, (7-Bromo-1-dimethylamino-5-oxo-5H-[1,2,4]triazolo[4,3-a]quinazolin-4-yl)-phenyl-acetic acid methyl ester] |
| 230 °C | COC(=O)c1ccc(Cn2c(=O)c3cc(C)ccc3n3c(N4CCCC4)nnc23)cc1 [Compound 95, 4(7-Methyl-5-oxo-1-pyrrolidin-1-yl-5H-[1,2,4]triazolo[4,3-a]quinazolin-4-ylmethyl)-benzoic acid methyl ester] |
| 139 °C | Cc1ccc2c(c1)c(=O)n(Cc1cccnc1)c1nnc(N3CCCC3)n21 [Compound 97, 7-Methyl-4-pyridin-3-ylmethyl-1-pyrrolidin-1-yl-4H-[1,2,4)triazolo[4,3-a]quinazolin-5-one] |
| 230 °C | Cc1ccc2c(c1)c(=O)n(CC=Cc1cccnc1)c1nnc(N3CCSCC3)n21 [Compound 100, 7-Methyl-4-(3-pyridin-3-yl-allyl)-1-thiomorpholin-4-yl-4H-[1,2,4]triazolo[4,3-a]quinazolin-5-one] |
| 119 °C | Cc1ccc2c(c1)c(=O)n(CC=Cc1ccncc1)c1nnc(N(C)C)n21 [Compound 105, 1-Dimethylamino-7-methyl-4-(3-pyridin-4yl-allyl)-4H-[1,2,4]triazolo[4,3-a]quinazolin-5-one] |
| 147 to 149 °C | CN(C)c1nnc2n(Cc3ccc(C#N)cc3)c(=O)c3cc(C#N)ccc3n12 [Compound 107, 4-(4-Cyano-benzyl)-1-dimethylamino-5-oxo-4,5-dihydro-[1,2,4]triazolo[4,3-a]quinazoline-7-carbonitrile] |
| 295 °C (dec.) | O=c1c2cc(O)ccc2n2c(N3CCCC3)nnc2n1C/C=C/c1ccccc1 [Compound 108, 7-Hydroxy-4-((E)-3-phenyl-allyl)-1-pyrrolidin-1-yl-4H-[1,2,4]triazolo[4,3-a]quinazolin-5-one] |
| 176 °C | O=c1nc2n(CC=Cc3ccccc3)nc(N3CCCCCC3)n2c2ccccc12 [Compound 109, 1-(azepan-1-yl)-3-(3-phenylallyl)-3H-[1,2,4]triazolo[4,3-a]-quinazolin-5-one] |
| 173 °C | C=CCn1nc(N2CCCCCC2)n2c3ccc(Cl)cc3c(=O)nc12 [Compound 110, 3-Allyl-1-azepan-1-yl-7-chloro-3H-[1,2,4]triazolo[4,3-a]quinazolin-5-one] |
| 148 °C | O=c1nc2n(Cc3ccccc3)nc(N3CCCCCC3)n2c2ccc(Cl)cc12 [Compound 111, 1-(azepan-1-yl)-7-chloro-3-benzyl-3H-[1,2,4]triazolo[4,3-a]-quinazolin-5-one] |
| 182 °C | Cc1ccc(Cn2nc(N3CCCCCC3)n3c4ccc(Cl)cc4c(=O)nc23)cc1 [Compound 112, 1-Azepan-1-yl-7-chloro-3-(4-methyl-benzyl)-3H-[1,2,4]triazolo[4,3-a]quinazolin-5-one] |
| 228 °C | O=c1nc2n(Cc3ccccc3Cl)nc(N3CCCCCC3)n2c2ccc(Cl)cc12 [Compound 113, 1-(azepan-1-yl)-7-chloro-3-(2-chlorobenzyl)-3H-[1,2,4]triazolo[4,3-a]quinazolin-5-one] |
| 166 °C | O=c1nc2n(Cc3cccc(Cl)c3)nc(N3CCCCCC3)n2c2ccc(Cl)cc12 [Compound 114, 1-(azepan-1-yl)-7-chloro-3-(3-chlorobenzyl)-3H-[1,2,4]triazolo[4,3-a]quinazolin-5one] |
